In ChEMBL document CHEMBL1687839, “ISAba825, a functional insertion sequence modulating genomic plasticity and bla(OXA-58) expression in Acinetobacter baumannii” (2011):
Converted amounts (≈) assume the structure as drawn.

Assays:
Type in all cases: functional
Acinetobacter baumannii [1] = test: Ratio of MIC for Acinetobacter baumannii ATCC 17978 harboring plasmid pWHP825 to MIC for Acinetobacter baumannii ATCC 17978 harboring plasmid 1266
Acinetobacter baumannii [2] = test: Antibacterial activity against Acinetobacter baumannii ATCC 17978 harboring plasmid directed expression of beta-lactamase OXA-58 under an ISAba825-ISAba3 hybrid and ISAba3-derived promoter sequence
Acinetobacter baumannii [3] = test: Antibacterial activity against Acinetobacter baumannii ATCC 17978 harboring pAB880
Acinetobacter baumannii [4] = test: Antibacterial activity against Acinetobacter baumannii ATCC 17978
Acinetobacter baumannii [5] = test: Antibacterial activity against Acinetobacter baumannii Ab880 overexpressing beta-lactamase OXA-58 under the control of ISAba825 insertion sequence
Acinetobacter baumannii [6] = test: Antibacterial activity against Acinetobacter baumannii ATCC 17978 harboring plasmid 1266
Acinetobacter baumannii [7] = test: Antibacterial activity against Acinetobacter baumannii ATCC 17978 harboring plasmid directed expression of beta-lactamase OXA-58 under an ISAba3 promoter

Compound	Ratio (Acinetobacter baumannii [1])	MIC (Acinetobacter baumannii [2])	MIC (Acinetobacter baumannii [3])	MIC (Acinetobacter baumannii [4])	MIC (Acinetobacter baumannii [5])	MIC (Acinetobacter baumannii [6])	MIC (Acinetobacter baumannii [7])
C[C@@H](O)[C@H]1C(=O)N2C(C(=O)O)=C(SCCNC=N)C[C@H]12 [IMIPENEM ANHYDROUS]	128	32 µg/mL (≈ 107 µM)	16 µg/mL (≈ 53.4 µM)	0.25 µg/mL (≈ 0.835 µM)	16 µg/mL (≈ 53.4 µM)	0.25 µg/mL (≈ 0.835 µM)	0.5 µg/mL (≈ 1.67 µM)
C[C@@H](O)[C@H]1C(=O)N2C(C(=O)O)=C(S[C@@H]3CN[C@H](C(=O)N(C)C)C3)[C@H](C)[C@H]12 [MEROPENEM]	64	16 µg/mL (≈ 41.7 µM)	8 µg/mL (≈ 20.9 µM)	0.25 µg/mL (≈ 0.652 µM)	16 µg/mL (≈ 41.7 µM)	0.25 µg/mL (≈ 0.652 µM)	0.5 µg/mL (≈ 1.3 µM)
